# Measurements published in US20120283325A1, “EXCIPIENT COMPATIBILITY WITH EZATIOSTAT” (Telik, Inc., priority 2011, published 2012).
# How the values were obtained:
# [1] = Degradation products by HPLC of binary mixtures and formulations of ezatiostat hydrochloride over time; format: physicochemical; conditions: 40° C. and 75% RH
# Method: (§1) Further, ezatiostat hydrochloride was mixed with each of the excipients mentioned in Table 3. The quantity of excipient used was determined by the desired properties of the resulting formulation. These blends were prepared in scintillation vials which were screw Teflon capped and stored at 40° C. and 75% RH.
# The degradation products were evaluated for each sample using HPLC at initial, 4 weeks, and 8 weeks period. For the initial and 4 week samples, the HPLC autosampler temperature was set at ambient but it was set at 5° C. for samples tested at 8 weeks. The autosampler temperature was lowered due to an observation that individual impurities were increasing during the HPLC run.
# The inconsistent results obtained at four weeks were attributed to higher temperature used during HPLC. For this reason, the data at four weeks is not probative for the underlying study.
# [2] = Potency results of ezatiostat hydrochloride in binary mixtures, formulations and alone stored at 40° C. and 75% RH; format: physicochemical; conditions: for Potency: 40° C. and 75% RH
# Method: as §1
# The potency results of ezatiostat hydrochloride in the binary mixtures of Table 3, Formulations 1 and 2 of Table 2, and ezatiostat hydrochloride alone stored at 40° C. and 75% RH are shown in Table 4.
# [3] = 4 weeks, autosampler ambient (data called not probative)
smiles,measurement,setting,value
"CCOC(=O)[C@@H](N)CCC(=O)N[C@@H](CSCc1ccccc1)C(=O)N[C@@H](C(=O)OCC)c1ccccc1.Cl [Ezatiostat•HCl, ethyl (2S)-2-amino-5-[[(2R)-3-benzylsulfanyl-1-[[(JR)-2-ethoxy-2-oxo-1-phenylethyl]amino]-1-oxopropan-2-yl]amino]-5-oxopentanoate]",RS(% Area) RRT 0.74,"[1]; 0 weeks, autosampler ambient",0.13% Area
same,RS(% Area) RRT 0.88,"[1]; 0 weeks, autosampler ambient",0.09% Area
same,RS(% Area) Total,"[1]; 0 weeks, autosampler ambient",0.22% Area
same,RS(% Area) RRT 0.74,[1]; [3],0.28% Area
same,RS(% Area) RRT 0.88,[1]; [3],0.27% Area
same,RS(% Area) Total,[1]; [3],0.55% Area
same,RS(% Area) RRT 0.74,"[1]; 8 weeks, autosampler 5° C.",0.07% Area
same,RS(% Area) RRT 0.88,"[1]; 8 weeks, autosampler 5° C.",0.51% Area
same,RS(% Area) Total,"[1]; 8 weeks, autosampler 5° C.",0.58% Area
same,RS(% Area) RRT 0.88,"[1]; 8 weeks, autosampler 5° C., listed as ezatiostat hydrochloride",0.51 % Area
same,Potency,[2]; T = 0 weeks,102.1%
same,Potency,[2]; T = 4 weeks,102.0%
same,Potency,[2]; T = 8 weeks,100.4%
same,Excipient compatibility,[2]; eight weeks at 40° C. and 75% RH,compatible with all the excipients investigated above
same,Potency change over eight weeks,[2]; storage at 40° C. and 75% RH,little change
